≈ marks a conversion by molar mass, not a printed value.

From ChEMBL document CHEMBL4819104, “Discovery of 2-amino-3-amido-5-aryl-pyridines as highly potent, orally bioavailable, and efficacious PERK kinase inhibitors” (Bioorg Med Chem Lett, 2021) come the findings set out here.

In data set [1] the target is T1, Eukaryotic translation initiation factor 2-alpha kinase 3 (Homo sapiens, UniProt Q9NZJ5).
T1 sequence (Q9NZJ5 whole entry): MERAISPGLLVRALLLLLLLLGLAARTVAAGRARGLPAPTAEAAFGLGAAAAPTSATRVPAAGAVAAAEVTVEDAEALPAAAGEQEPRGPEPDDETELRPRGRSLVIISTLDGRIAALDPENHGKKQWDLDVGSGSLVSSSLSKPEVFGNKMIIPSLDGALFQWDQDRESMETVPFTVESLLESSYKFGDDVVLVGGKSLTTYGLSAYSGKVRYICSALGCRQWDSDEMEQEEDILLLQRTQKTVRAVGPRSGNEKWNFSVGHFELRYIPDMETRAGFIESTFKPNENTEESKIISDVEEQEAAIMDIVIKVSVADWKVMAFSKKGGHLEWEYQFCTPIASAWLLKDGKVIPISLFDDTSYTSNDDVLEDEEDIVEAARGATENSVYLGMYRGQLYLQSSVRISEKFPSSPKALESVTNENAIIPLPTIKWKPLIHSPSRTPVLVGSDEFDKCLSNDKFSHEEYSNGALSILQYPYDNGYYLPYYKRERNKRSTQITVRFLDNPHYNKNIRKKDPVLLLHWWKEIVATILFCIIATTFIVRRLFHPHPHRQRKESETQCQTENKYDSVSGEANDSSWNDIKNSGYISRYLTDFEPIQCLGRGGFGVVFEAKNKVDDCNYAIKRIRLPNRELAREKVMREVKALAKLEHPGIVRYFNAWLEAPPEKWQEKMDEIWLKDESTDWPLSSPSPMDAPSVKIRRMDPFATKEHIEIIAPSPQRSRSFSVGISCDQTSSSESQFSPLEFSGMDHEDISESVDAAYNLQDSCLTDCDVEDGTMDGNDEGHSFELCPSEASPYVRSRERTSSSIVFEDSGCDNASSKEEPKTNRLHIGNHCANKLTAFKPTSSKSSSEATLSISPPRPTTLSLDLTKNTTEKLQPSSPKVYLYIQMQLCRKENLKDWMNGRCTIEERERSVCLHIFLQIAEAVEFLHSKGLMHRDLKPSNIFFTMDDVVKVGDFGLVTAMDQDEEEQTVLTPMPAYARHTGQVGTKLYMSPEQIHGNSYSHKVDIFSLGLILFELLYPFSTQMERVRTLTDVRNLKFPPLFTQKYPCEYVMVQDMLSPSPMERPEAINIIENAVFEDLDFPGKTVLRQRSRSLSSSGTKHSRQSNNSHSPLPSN
The data set can be described thus: Inhibition of human His-tagged PERK expressed in Escherichia coli assessed as eIF2alpha phosphorylation by TR-FRET assay.

Data set [2] can be described thus: Aqueous solubility of the compound. The format is physicochemical. Conditions: buffer.
The nature of data set [3]: Apparent permeability of the compound across apical to basolateral side in human Caco-2 cells. The format is ADME, cell-based. Conditions: read-out: permeability.
The nature of data set [4]: Plasma protein binding in rat. The format is ADME, cell-free. Conditions: read-out: PPB (converted).
The nature of data set [5]: Half life in human hepatocytes. The format is ADME, cell-based, Hepatocyte.
A short description of data set [6]: Half life in rat hepatocytes. The format is ADME, cell-based, Hepatocyte.
Data set [7] in a line: Half life in mouse hepatocytes. The format is ADME, cell-based, Hepatocyte.
The test system of data set [8] is Tyrosine-protein kinase ABL1 (Homo sapiens), P00519 [F317L]. Put plainly: Inhibition of human non-phosphorylated ABL1 F317L mutant (S229 to K512 residues) expressed in mammalian expression system assessed as residual activity at 10 uM by Kinomescan method relative to control.
The target of data set [9] is Aurora kinase B (Homo sapiens) (UniProt Q96GD4). Put plainly: Inhibition of wild-type human partial length AURKB (D25 to A303 residues) expressed in mammalian expression system assessed as residual activity at 10 uM by Kinomescan method relative to control.
In data set [10] the target is Tyrosine-protein kinase receptor UFO (Homo sapiens) (UniProt P30530). Put plainly: Inhibition of wild-type human partial length AXL (R497 to Y821 residues) expressed in bacterial expression system assessed as residual activity at 10 uM by Kinomescan method relative to control.
The target in data set [11] is Macrophage colony-stimulating factor 1 receptor (Homo sapiens) (UniProt P07333). The data set can be described thus: Inhibition of wild-type human partial length CSF1R (I564 to S939 residues) expressed in bacterial expression system assessed as residual activity at 10 uM by Kinomescan method relative to control.
Data set [12] deals with Epithelial discoidin domain-containing receptor 1 (Homo sapiens) (UniProt Q08345). Put plainly: Inhibition of wild-type human partial length DDR1 (R565 to V876 residues) expressed in bacterial expression system assessed as residual activity at 10 uM by Kinomescan method relative to control.
Data set [13] concerns the target Mast/stem cell growth factor receptor Kit (Homo sapiens) (UniProt P10721). The data set can be described thus: Inhibition of wild-type human partial length KIT (I571 to D952 residues) expressed in bacterial expression system assessed as residual activity at 10 uM by Kinomescan method relative to control.
Data set [14] concerns the target T2, Mitogen-activated protein kinase 12 (Homo sapiens) (UniProt P53778).
T2 sequence (whole entry): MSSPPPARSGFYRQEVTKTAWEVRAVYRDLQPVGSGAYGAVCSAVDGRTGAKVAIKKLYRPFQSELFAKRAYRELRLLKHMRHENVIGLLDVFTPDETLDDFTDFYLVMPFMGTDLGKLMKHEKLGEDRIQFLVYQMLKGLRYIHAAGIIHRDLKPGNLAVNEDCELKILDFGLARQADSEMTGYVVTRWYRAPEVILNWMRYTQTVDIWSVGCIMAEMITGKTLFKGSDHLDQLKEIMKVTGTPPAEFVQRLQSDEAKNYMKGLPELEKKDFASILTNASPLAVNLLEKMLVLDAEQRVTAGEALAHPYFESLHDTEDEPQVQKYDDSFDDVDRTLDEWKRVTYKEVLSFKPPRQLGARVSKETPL
Put plainly: Inhibition of wild-type human full length p38-gamma (M1 to L367 residues) expressed in mammalian expression system assessed as residual activity at 10 uM by Kinomescan method relative to control.

In data set [15] the target is Platelet-derived growth factor receptor beta (Homo sapiens) (UniProt P09619). Put plainly: Inhibition of wild-type human partial length PDGFRbeta (V582 to Y1009 residues) expressed in bacterial expression system assessed as residual activity at 10 uM by Kinomescan method relative to control.
The target of data set [16] is Proto-oncogene tyrosine-protein kinase Src (Homo sapiens) (UniProt P12931). The data set can be described thus: Inhibition of wild-type human partial length SRC (L240 to L536 residues) expressed in bacterial expression system assessed as residual activity at 10 uM by Kinomescan method relative to control.
Data set [17] deals with Angiopoietin-1 receptor (Homo sapiens) (UniProt Q02763). The data set can be described thus: Inhibition of wild-type human partial length TIE2 (N804 to T1112 residues) expressed in bacterial expression system assessed as residual activity at 10 uM by Kinomescan method relative to control.
Data set [18] concerns the target BDNF/NT-3 growth factors receptor (Homo sapiens) (UniProt Q16620). Put plainly: Inhibition of wild-type human partial length TRKB (Q547 to G838 residues) expressed in mammalian expression system assessed as residual activity at 10 uM by Kinomescan method relative to control.
A short description of data set [19]: Cmax in mouse at 10 mg/kg, po. Also on record: route oral, dose 10 mg/kg. Conditions: in vivo. The format is ADME, organism-based.
Data set [20] is described as follows: AUC (0 to last) in mouse at 10 mg/kg, po. The format is ADME, organism-based. Also on record: time 0 - last, route oral, dose 10 mg/kg. Conditions: in vivo.

Chain of Macrophage colony-stimulating factor 1 receptor (Homo sapiens) (P07333 whole entry, the tested form may be a part): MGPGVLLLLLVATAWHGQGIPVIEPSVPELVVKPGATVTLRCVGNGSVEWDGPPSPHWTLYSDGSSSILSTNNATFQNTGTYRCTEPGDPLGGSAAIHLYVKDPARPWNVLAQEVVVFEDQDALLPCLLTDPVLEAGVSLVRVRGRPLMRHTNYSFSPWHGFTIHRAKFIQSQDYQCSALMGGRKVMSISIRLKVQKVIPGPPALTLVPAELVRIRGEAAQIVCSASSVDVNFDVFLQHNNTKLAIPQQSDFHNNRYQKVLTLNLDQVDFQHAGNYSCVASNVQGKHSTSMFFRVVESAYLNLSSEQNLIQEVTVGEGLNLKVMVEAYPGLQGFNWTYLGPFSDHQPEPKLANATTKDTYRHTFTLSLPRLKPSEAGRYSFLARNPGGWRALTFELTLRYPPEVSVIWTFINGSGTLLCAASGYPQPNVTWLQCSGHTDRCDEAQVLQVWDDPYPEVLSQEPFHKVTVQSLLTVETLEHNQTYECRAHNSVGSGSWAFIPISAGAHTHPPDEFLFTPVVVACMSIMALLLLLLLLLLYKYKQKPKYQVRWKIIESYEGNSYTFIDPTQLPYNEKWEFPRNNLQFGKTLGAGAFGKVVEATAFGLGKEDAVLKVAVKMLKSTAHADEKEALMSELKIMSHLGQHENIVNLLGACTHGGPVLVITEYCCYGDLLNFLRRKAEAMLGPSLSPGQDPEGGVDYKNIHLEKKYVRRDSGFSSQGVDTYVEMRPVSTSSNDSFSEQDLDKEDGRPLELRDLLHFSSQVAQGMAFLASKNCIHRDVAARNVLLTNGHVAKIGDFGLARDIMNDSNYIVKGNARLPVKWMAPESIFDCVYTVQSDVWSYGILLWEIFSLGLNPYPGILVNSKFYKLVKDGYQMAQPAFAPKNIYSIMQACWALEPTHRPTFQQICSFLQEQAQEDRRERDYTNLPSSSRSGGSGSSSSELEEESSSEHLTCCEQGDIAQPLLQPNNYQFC
Chain of Epithelial discoidin domain-containing receptor 1 (Homo sapiens) (Q08345 whole entry, the tested form may be a part): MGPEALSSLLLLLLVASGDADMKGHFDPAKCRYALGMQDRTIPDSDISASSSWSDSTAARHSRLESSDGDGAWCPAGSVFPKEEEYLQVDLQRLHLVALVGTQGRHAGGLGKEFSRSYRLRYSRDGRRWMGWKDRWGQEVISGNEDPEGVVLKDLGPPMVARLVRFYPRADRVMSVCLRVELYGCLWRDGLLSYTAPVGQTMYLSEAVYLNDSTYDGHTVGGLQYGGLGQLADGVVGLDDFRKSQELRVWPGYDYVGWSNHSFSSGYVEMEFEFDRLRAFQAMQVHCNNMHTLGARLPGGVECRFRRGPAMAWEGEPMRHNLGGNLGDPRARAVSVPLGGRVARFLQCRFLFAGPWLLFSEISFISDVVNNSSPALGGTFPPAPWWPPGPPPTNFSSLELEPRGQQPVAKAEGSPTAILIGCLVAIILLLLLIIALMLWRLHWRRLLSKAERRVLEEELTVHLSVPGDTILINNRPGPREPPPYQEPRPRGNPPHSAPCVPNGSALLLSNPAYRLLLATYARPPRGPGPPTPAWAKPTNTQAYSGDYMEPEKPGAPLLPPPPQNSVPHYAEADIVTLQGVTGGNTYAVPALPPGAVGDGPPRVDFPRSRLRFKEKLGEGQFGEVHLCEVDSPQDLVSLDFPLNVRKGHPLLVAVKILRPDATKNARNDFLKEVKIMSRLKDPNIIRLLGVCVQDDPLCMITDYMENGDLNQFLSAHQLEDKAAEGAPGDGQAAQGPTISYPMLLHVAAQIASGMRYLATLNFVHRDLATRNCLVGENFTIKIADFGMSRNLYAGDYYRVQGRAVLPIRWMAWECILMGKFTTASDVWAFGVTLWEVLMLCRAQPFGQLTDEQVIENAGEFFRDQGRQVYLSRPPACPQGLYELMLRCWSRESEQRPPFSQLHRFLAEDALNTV
Chain of Tyrosine-protein kinase receptor UFO (Homo sapiens) (P30530 whole entry, the tested form may be a part): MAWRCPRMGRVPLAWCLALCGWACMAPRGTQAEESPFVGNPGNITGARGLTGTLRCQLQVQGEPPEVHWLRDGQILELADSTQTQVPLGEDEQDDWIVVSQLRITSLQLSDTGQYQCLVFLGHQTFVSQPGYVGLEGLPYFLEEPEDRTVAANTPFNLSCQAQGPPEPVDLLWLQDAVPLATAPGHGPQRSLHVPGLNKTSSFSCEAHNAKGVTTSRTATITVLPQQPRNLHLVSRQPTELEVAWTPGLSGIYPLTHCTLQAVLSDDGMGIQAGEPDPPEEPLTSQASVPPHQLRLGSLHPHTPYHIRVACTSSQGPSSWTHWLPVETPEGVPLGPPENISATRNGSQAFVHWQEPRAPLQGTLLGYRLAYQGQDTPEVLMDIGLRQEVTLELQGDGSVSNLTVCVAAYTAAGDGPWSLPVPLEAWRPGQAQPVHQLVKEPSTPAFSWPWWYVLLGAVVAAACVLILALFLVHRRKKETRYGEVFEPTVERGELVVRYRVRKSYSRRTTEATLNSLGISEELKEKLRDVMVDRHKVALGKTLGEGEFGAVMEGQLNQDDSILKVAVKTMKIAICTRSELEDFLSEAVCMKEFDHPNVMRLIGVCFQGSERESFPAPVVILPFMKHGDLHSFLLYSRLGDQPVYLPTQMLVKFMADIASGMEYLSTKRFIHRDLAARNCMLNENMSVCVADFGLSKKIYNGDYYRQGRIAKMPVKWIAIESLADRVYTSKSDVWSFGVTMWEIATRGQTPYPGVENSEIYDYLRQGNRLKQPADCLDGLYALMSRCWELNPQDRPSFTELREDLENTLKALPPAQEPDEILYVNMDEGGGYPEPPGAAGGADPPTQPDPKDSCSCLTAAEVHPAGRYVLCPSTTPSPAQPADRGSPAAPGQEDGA
Chain of Aurora kinase B (Homo sapiens) (Q96GD4 whole entry, the tested form may be a part): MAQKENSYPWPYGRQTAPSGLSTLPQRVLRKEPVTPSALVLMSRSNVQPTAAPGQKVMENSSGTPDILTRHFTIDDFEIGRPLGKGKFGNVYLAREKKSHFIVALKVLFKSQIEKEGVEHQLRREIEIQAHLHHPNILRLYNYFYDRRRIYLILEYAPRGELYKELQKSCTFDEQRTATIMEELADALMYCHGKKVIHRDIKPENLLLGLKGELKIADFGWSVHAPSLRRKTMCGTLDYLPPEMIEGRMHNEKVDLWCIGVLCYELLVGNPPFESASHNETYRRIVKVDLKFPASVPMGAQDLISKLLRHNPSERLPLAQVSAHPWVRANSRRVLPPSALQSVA
Chain of Platelet-derived growth factor receptor beta (Homo sapiens) (P09619 whole entry, the tested form may be a part): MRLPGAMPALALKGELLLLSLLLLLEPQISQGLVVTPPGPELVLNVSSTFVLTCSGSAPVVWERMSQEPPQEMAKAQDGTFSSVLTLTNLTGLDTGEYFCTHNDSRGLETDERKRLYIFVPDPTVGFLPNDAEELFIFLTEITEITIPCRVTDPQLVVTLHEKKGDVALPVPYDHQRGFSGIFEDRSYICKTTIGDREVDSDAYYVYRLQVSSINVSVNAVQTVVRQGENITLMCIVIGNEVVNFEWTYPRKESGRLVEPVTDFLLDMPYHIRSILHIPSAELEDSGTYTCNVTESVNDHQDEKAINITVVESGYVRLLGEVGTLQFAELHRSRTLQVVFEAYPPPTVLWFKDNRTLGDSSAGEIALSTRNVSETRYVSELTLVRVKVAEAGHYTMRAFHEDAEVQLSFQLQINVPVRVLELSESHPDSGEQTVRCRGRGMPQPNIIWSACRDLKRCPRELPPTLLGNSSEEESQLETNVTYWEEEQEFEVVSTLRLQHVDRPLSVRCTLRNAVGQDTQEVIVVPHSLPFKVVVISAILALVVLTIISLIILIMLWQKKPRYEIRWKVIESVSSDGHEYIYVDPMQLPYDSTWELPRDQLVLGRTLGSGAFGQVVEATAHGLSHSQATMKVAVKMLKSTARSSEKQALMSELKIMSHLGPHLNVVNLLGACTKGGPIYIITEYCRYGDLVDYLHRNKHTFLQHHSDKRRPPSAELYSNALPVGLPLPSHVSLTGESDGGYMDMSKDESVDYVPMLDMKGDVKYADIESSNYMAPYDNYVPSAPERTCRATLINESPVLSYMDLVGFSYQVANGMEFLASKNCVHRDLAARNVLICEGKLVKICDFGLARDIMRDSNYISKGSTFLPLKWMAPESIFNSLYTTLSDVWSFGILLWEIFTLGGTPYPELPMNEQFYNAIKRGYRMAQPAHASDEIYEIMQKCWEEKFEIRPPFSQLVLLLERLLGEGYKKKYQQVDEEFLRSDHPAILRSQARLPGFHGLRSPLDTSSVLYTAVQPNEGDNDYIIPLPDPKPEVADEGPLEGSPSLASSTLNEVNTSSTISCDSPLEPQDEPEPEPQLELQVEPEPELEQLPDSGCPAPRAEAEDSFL
Chain of BDNF/NT-3 growth factors receptor (Homo sapiens) (Q16620 32-822 limits assumed): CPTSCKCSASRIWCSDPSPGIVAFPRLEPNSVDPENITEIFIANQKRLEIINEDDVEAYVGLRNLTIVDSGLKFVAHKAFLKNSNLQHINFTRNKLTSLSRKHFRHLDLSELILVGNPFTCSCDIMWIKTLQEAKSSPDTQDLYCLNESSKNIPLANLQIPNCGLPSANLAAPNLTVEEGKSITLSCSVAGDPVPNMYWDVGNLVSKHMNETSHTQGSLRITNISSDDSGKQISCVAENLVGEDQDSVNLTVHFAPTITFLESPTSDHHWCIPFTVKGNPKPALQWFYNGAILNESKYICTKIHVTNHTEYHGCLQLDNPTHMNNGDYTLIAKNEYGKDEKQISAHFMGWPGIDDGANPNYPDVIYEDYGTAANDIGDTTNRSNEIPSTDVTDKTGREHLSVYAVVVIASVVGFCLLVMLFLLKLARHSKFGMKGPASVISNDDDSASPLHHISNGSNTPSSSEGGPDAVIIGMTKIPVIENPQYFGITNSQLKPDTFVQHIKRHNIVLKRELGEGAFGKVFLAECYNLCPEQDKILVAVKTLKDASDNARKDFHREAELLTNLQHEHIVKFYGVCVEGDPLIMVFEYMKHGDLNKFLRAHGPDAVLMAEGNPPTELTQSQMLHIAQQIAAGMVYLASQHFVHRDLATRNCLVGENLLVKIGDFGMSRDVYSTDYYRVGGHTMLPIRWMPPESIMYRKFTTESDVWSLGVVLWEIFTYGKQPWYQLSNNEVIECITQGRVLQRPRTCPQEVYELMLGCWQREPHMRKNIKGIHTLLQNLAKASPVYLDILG

For the compound `CCc1cc(NC(=O)[C@H](O)c2cc(F)cc(F)c2)ccc1-c1cnc(N)c(C(=O)NC(C)C)c1`, the concentration for half-maximal inhibition (IC50) in data set [1] was found to be 2 nM. Moreover, in [2], the concentration in solution (solubility) was 10 µM (≈ 4.69 µg/mL). In addition, the Papp A→B in data set [3] turned out to be 22 ×10⁻⁶ cm/s. The fraction unbound in [4] is 0.007. The half-life stood at 5.17 h in data set [5], 0.233 h in data set [6] and 1.05 h in data set [7]. Further, the Activity in data set [8] is 100%; in [9] it was 75%; in data set [10] it was 70%; in data set [11], 74%; in data set [12], 100%; in [13], 67%. In addition, the Activity is 87% in data set [14]; 60% in [15]; 97% in [16]; 85% in data set [17]; 100% in data set [18]. In addition, the Cmax in data set [19] amounted to 3350 ng/mL. The same compound displayed an AUC(0-t) in [20] of 5150 ng·h/mL.
